Test results published in patent US20260048155A1, “BIOCOMPATIBLE PARAHYDROGEN HYPERPOLARIZED SOLUTIONS BY PRECIPITATION AND RE-DISSOLUTION” (North Carolina State University, priority 2022, published 2026).

Assay: Titration study of sodium pyruvate solubility / precipitation from methanol by added solvent
Format: physicochemical
Method: Precipitating and filtering of pyruvate from solutions using thermally polarized natural-abundance sodium pyruvate: Considering the finding of low pyruvate solubility herein, ethanol was an obvious first choice as the precipitating solvent. […] Other candidates (acetone, 1-propanol, and ethyl acetate) were tested next. All three solvents mixed with methanol and dissolved 6 mM of SABRE catalyst well. […] For each of the three solvents (FIG. 11) eight 500-μL batches of methanol containing different concentrations of pyruvate were prepared (cpyr∈[80, 60, 40, 30, 20, 8, 4, 2] mM). Then, 9.5 mL of the respective precipitating solvent were added to each sample. In all 80 mM samples, prominent and almost instantaneous precipitation was observed as the solutions lost transparency and became milky. For 1-propanol, acetone, and ethyl acetate, precipitation was visible for all mixtures with 40 mM, 20 mM, and 4 mM or more initial concentration of pyruvate, respectively. Additionally, as ethyl acetate and water are immiscible, a later purification of this solvent was expected to be advantageous (see below). Based on these observations, the rest of the study was continued with acetone and ethyl acetate.

CC(=O)C(=O)[O-].[Na+] [sodium pyruvate]
precipitation on ethanol addition (9-fold volume of ethanol added to 80 mM in methanol): no precipitation was detected
initial pyruvate concentration in methanol at which precipitation was visible (500 μL methanol + 9.5 mL 1-propanol): ≥ 40 mM
initial pyruvate concentration in methanol at which precipitation was visible (500 μL methanol + 9.5 mL acetone): ≥ 20 mM
initial pyruvate concentration in methanol at which precipitation was visible (500 μL methanol + 9.5 mL ethyl acetate): ≥ 4 mM
